Data: publication PMC6099238 (Journal of Clinical Pharmacology, 2018)
Read-outs that look alike come from different tables or passages of the source. Blank lines part the entries; values can stand above or below the compound they belong to.

Experiments:
serum uric acid = test: Serum uric acid lowering, phase 1b open-label multiple-dose study; format: in vivo, patients with gout; conditions: for serum uric acid: Change From Baseline, Emax (maximum percentage change from baseline in serum uric acid lowering) / serum uric acid: Change From Baseline, Predose / Subjects With Predose Serum Uric Acid <4 mg/dL / Subjects With Predose Serum Uric Acid <5 mg/dL / Subjects With Predose Serum Uric Acid <6 mg/dL: group 2; for serum uric acid: Change From Baseline, Emax (maximum percentage change from baseline in serum uric acid lowering) / serum uric acid: Change From Baseline, Predose: ALLO 300 mg/day alone (day 7), ALLO 300 mg/LESU 600 mg (day 14), LESU 600 mg/day alone (day 21), % (SE); for Subjects With Predose Serum Uric Acid <4 mg/dL / Subjects With Predose Serum Uric Acid <5 mg/dL / Subjects With Predose Serum Uric Acid <6 mg/dL: ALLO 300 mg/day alone (day 7, n = 10), ALLO 300 mg/LESU 600 mg (day 14, n = 10), LESU 600 mg/day alone (day 21, n = 9)
urinary urate excretion = test: Urinary excretion of urate, fractional excretion of urate and xanthine; format: in vivo, patients with gout
URAT1 = conditions: cited from earlier work
[1] = format: in vivo, patients with gout
[2] = ALLO 300 mg/LESU 400 mg versus ALLO 300 mg alone
[3] = ALLO 300 mg/LESU 600 mg versus ALLO 300 mg alone

SMILES: Oc1ncnc2[nH]ncc12 [allopurinol]
Emax (serum uric acid lowering) (serum uric acid; allopurinol 300 mg (discussion)): −37%
serum uric acid reduced by (serum uric acid; allopurinol 300 mg/day alone (abstract)): 37%
serum uric acid: Change From Baseline, Emax (maximum percentage change from baseline in serum uric acid lowering) (serum uric acid): −35.1 (2.3) %
serum uric acid: Change From Baseline, Predose (serum uric acid): −28.7 (2.4) %
Subjects With Predose Serum Uric Acid <4 mg/dL (serum uric acid): 0 n (%)
Subjects With Predose Serum Uric Acid <5 mg/dL (serum uric acid): 1 (10) n (%)
Subjects With Predose Serum Uric Acid <6 mg/dL (serum uric acid): 3 (30) n (%)
decrease of 24‐hour urate excretion compared with baseline (urinary urate excretion; allopurinol 300 mg alone): ~35%
Mean 24‐hour urate excretion compared with baseline (urinary urate excretion; allopurinol 300 mg/day alone): –35%
effect on fractional excretion of urate (urinary urate excretion; single agent): no effect
effect on xanthine excretion (urine) (urinary urate excretion; single agent): increased

SMILES: O=C(O)CSc1nnc(Br)n1-c1ccc(C2CC2)c2ccccc12 [lesinurad]
serum uric acid: Change From Baseline, Emax (maximum percentage change from baseline in serum uric acid lowering) (serum uric acid): −46.7 (5.5) %
serum uric acid: Change From Baseline, Predose (serum uric acid): −37.2 (1.6) %
Subjects With Predose Serum Uric Acid <4 mg/dL (serum uric acid): 0 n (%)
Subjects With Predose Serum Uric Acid <5 mg/dL (serum uric acid): 3 (33) n (%)
Subjects With Predose Serum Uric Acid <6 mg/dL (serum uric acid): 6 (67) n (%)
serum uric acid reduced by (serum uric acid; lesinurad 400 mg/day, added to allopurinol 300 mg/day or alone (abstract)): 44%
serum uric acid reduced by (serum uric acid; lesinurad 600 mg/day, added to allopurinol 300 mg/day or alone (abstract)): 47%
effect on xanthine excretion (urine) (urinary urate excretion; single agent): no significant effect

Oxypurinol AUC0‐24 Geometric Mean Ratio (90%CI) (Combination/Alone) [1, 2]: 74.2 (65.1‐84.7)
Oxypurinol Cmax Geometric Mean Ratio (90%CI) (Combination/Alone) [1, 2]: 79.4 (69.8‐90.3)
Oxypurinol AUC0‐24 Geometric Mean Ratio (90%CI) (Combination/Alone) [1, 3]: 64.7 (61.3‐68.3)
Oxypurinol Cmax Geometric Mean Ratio (90%CI) (Combination/Alone) [1, 3]: 71.7 (67.8‐75.7)
Decrease of oxypurinol plasma concentrations ([1]; during co-administration of lesinurad 400 mg with allopurinol 300 mg): approximately 26%
Decrease of oxypurinol plasma concentrations ([1]; during co-administration of lesinurad 600 mg with allopurinol 300 mg): ~35%
Cmax ([1]; human, plasma, oral, Oxypurinol Cmax, ALLO 300 mg/LESU 600 mg co-administration, geometric mean, n = 10): 9660 ng/mL
Oxypurinol Tmax ([1]; plasma, ALLO 300 mg alone, group 1 (before LESU 400 mg), median (range), n = 10): 4.00 (3.00‐6.00) h
Oxypurinol Cmax ([1]; plasma, ALLO 300 mg/LESU 400 mg co-administration, geometric mean, n = 10): 9.82 (8.66‐11.1) μg/mL
SMILES: O=c1[nH]c(=O)c2c[nH]nc2[nH]1 [oxypurinol]
transporter substrate (URAT1): substrate of URAT1
